What was measured:
[1] = target: Vascular endothelial growth factor receptor 3 (Homo sapiens) (UniProt P35916); experiment: Inhibition of FLT4 (unknown origin) at 100 nM
[2] = target: Tyrosine-protein kinase Mer (Homo sapiens) (UniProt Q12866); experiment: Inhibition of MER (unknown origin) at 100 nM
[3] = target: Serine/threonine-protein kinase haspin (Homo sapiens) (UniProt Q8TF76); experiment: Inhibition of Haspin (unknown origin) at 100 nM
[4] = target: Serine/threonine-protein kinase PAK 1 (Homo sapiens) (UniProt Q13153); experiment: Inhibition of PAK1 (unknown origin) at 100 nM
[5] = target: Epidermal growth factor receptor (Homo sapiens, UniProt P00533, L858R/T790M); experiment: Inhibition of EGFR T790M/L858R mutant autophosphorylation in human H1975 cells; format: cell-based
[6] = target: Activin receptor type-2B (Homo sapiens) (UniProt Q13705); experiment: Inhibition of ACVR2B (unknown origin) at 100 nM
[7] = target: Serine/threonine-protein kinase 4 (Homo sapiens) (UniProt Q13043); experiment: Inhibition of MST1 (unknown origin) at 100 nM
[8] = test system: Mast/stem cell growth factor receptor Kit (Homo sapiens), P10721 [V654A]; experiment: Inhibition of KIT V654A mutant (unknown origin) at 100 nM
[9] = target: Platelet-derived growth factor receptor alpha (Homo sapiens) (UniProt P16234); experiment: Inhibition of PDGFRalpha (unknown origin) at 100 nM
[10] = target: Cyclin-dependent kinase 5/CDK5 activator 1 (Homo sapiens) (UniProt Q00535+Q15078); experiment: Inhibition of CDK5/p35 (unknown origin) at 100 nM; format: protein-complex assay
[11] = target: Calcium/calmodulin-dependent protein kinase kinase 2 (Homo sapiens) (UniProt Q96RR4); experiment: Inhibition of CAMKK2 (unknown origin) at 100 nM
[12] = target: Receptor tyrosine-protein kinase erbB-2 (Homo sapiens) (UniProt P04626); experiment: Inhibition of ERBB2 (unknown origin) at 100 nM
[13] = target: Tyrosine-protein kinase Blk (Homo sapiens) (UniProt P51451); experiment: Inhibition of BLK (unknown origin) at 100 nM
[14] = target: Casein kinase I isoform delta (Homo sapiens) (UniProt P48730); experiment: Inhibition of CK1delta (unknown origin) at 100 nM
Casein kinase I isoform delta (Homo sapiens), sequence (P48730 whole entry, looked up, canonical isoform): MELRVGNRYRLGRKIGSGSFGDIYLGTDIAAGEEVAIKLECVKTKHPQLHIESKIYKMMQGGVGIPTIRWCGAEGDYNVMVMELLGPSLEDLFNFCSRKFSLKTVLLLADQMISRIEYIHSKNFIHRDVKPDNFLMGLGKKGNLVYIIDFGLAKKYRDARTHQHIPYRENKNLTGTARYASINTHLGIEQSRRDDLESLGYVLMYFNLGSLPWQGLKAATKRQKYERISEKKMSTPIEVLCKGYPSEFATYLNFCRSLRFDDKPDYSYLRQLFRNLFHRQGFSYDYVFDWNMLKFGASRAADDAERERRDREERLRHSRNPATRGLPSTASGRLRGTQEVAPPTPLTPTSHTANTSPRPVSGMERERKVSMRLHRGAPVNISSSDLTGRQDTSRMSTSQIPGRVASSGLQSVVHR

Serine/threonine-protein kinase 4 (Homo sapiens), sequence (Q13043 whole entry): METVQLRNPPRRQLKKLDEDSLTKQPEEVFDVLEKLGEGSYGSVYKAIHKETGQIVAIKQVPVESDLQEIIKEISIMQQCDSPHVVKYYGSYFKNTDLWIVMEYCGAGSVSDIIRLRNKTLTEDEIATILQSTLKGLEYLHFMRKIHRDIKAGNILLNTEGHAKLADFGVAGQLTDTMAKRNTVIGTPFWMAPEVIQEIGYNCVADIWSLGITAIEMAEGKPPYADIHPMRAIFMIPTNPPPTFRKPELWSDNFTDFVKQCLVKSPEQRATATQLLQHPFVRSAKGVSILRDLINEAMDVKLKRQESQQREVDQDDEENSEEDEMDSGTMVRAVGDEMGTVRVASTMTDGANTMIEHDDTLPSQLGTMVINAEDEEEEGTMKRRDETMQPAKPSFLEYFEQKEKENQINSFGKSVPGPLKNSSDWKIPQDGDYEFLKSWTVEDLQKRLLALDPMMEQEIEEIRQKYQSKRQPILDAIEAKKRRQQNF
Serine/threonine-protein kinase haspin (Homo sapiens), sequence (Q8TF76 whole entry): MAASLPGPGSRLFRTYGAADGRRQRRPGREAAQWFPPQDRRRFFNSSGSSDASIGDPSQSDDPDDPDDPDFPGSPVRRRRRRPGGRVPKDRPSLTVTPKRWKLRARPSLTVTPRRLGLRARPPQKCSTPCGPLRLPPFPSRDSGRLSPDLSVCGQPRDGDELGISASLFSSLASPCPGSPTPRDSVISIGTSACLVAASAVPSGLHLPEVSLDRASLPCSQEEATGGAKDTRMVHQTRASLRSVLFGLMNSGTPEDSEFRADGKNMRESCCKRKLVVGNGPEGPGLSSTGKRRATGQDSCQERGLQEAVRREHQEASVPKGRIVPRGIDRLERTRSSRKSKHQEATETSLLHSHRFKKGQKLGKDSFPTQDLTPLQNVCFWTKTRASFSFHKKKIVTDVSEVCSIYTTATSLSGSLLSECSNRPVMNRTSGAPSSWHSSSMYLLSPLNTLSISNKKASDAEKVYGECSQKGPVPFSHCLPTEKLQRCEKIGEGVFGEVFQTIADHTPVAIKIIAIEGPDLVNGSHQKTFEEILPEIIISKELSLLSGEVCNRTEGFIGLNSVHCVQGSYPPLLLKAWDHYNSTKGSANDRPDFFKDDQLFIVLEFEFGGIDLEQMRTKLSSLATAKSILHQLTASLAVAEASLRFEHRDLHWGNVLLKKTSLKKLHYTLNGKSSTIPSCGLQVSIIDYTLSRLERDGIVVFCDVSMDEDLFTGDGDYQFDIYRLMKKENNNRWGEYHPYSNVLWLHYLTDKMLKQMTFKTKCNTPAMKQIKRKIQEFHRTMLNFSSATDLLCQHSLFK
Receptor tyrosine-protein kinase erbB-2 (Homo sapiens), sequence (P04626 whole entry): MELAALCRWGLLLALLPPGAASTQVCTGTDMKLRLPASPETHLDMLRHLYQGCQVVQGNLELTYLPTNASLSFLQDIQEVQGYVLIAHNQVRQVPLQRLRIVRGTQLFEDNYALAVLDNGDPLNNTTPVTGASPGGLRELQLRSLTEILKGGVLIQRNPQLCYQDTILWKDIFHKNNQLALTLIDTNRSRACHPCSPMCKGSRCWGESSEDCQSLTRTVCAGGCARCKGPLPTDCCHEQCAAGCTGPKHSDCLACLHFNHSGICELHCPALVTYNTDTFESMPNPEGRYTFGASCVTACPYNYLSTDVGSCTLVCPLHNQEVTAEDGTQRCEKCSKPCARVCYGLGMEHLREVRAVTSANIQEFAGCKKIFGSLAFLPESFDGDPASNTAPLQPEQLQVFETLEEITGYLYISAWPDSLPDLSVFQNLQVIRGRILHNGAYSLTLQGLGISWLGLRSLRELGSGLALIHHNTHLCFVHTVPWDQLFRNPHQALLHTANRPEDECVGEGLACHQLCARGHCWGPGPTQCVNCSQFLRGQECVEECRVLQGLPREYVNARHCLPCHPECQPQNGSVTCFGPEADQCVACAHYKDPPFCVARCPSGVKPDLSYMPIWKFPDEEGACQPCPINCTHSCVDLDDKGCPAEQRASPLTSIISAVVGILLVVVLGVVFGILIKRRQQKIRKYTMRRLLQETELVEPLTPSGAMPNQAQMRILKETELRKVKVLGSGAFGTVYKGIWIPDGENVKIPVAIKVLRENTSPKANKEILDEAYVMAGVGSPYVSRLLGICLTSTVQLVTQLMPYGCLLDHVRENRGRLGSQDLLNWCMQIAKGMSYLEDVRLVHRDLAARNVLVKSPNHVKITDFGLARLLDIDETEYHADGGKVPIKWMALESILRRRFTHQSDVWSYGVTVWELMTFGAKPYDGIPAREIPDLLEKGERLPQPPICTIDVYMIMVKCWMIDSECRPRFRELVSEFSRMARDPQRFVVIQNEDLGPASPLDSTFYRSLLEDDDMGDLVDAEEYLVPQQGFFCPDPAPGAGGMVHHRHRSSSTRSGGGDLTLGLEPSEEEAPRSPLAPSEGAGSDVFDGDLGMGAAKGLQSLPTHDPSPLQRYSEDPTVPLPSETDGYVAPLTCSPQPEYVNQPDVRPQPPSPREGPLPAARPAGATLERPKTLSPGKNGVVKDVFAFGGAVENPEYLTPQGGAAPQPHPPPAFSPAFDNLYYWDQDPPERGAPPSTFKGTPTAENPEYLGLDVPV
Platelet-derived growth factor receptor alpha (Homo sapiens), sequence (P16234 whole entry): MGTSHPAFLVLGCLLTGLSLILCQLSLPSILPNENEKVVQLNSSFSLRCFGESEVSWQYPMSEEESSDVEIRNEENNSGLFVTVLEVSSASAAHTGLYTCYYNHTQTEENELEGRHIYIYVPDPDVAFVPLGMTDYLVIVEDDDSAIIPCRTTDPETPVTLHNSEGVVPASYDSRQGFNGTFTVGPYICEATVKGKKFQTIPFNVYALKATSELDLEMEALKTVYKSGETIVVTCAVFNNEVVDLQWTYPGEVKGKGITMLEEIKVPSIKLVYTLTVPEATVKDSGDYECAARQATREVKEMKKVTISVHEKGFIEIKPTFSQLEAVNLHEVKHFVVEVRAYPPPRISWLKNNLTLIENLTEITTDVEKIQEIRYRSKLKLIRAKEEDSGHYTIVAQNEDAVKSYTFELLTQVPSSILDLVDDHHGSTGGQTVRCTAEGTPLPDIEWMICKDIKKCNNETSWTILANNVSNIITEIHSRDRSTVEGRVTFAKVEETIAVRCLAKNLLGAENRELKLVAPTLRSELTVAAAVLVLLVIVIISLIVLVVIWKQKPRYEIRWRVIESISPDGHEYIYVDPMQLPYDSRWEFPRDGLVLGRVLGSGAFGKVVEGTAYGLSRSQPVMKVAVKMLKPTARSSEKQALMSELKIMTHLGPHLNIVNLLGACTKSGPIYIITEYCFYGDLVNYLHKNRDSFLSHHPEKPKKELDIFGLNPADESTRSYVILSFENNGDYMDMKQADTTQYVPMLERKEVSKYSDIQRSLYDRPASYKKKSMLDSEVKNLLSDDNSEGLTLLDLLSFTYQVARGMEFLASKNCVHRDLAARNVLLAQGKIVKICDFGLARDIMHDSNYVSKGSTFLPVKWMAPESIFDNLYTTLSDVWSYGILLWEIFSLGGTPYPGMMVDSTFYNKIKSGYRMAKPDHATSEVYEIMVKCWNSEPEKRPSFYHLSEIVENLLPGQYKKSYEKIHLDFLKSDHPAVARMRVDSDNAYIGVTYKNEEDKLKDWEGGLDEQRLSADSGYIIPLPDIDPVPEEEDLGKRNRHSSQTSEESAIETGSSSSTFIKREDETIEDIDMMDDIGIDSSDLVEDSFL
Tyrosine-protein kinase Mer (Homo sapiens), sequence (Q12866 whole entry): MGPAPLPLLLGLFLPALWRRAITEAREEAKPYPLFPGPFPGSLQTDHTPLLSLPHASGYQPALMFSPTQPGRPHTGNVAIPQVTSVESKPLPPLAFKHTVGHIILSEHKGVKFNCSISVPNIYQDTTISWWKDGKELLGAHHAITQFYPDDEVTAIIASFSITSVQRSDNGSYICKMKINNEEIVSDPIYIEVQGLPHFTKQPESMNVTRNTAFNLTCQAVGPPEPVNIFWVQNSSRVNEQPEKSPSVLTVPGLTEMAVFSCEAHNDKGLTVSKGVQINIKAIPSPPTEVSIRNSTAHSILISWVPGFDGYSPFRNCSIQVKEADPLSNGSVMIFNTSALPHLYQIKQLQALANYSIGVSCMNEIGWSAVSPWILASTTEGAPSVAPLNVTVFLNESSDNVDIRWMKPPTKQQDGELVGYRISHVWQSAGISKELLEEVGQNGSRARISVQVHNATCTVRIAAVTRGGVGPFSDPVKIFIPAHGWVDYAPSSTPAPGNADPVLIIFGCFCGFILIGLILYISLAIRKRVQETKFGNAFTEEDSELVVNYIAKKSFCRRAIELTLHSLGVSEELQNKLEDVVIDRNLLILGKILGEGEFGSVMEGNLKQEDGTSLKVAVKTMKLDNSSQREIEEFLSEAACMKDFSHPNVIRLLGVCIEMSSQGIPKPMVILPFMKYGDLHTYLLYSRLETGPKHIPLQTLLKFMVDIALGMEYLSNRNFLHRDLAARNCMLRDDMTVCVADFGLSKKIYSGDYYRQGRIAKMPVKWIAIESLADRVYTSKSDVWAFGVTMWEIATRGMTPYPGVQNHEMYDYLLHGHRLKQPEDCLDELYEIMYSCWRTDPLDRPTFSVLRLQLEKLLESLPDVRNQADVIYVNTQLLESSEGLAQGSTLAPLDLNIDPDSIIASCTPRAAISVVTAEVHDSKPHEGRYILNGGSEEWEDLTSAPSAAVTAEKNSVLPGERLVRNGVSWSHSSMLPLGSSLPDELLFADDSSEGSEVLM

CC1(C)OCc2c(Nc3n[nH]c4ccccc34)nc(-c3cn[nH]c3)nc21
inhibition [1]: 95.8% | inhibition [2]: 6.3% | inhibition [3]: 8.1% | inhibition [4]: -4.1% | IC50 [5]: 600 nM | inhibition [6]: 96.8% | inhibition [7]: 13.1% | inhibition [8]: 1.1% | inhibition [9]: 57.1% | inhibition [10]: 3.1% | inhibition [11]: 1.8% | inhibition [12]: 57.2% | inhibition [13]: 67.7% | inhibition [14]: 13.1%

Source: ChEMBL document CHEMBL3758169, “4-Aminoindazolyl-dihydrofuro[3,4-d]pyrimidines as non-covalent inhibitors of mutant epidermal growth factor receptor tyrosine kinase” (Bioorg Med Chem Lett, 2016)
